In ChEMBL document CHEMBL5505960, “Synthesis and evaluation of butylphthalide-scutellarein hybrids as multifunctional agents for the treatment of Alzheimer's disease” (Eur J Med Chem, 2024) one finds Activity and inhibition data, which are given here for 28 compounds.

Calls of active or inactive are those of the source. The calls are words filed in the database; no cut-off is given here.

A short description of data set [1]: Antioxidant activity assessed as trolox equivalent of ORAC radical scavenging activity by ORAC-FL assay relative to trolox. It is filed as functional.
In data set [2] the target is Amyloid-beta precursor protein (Homo sapiens) (UniProt P05067). As to the kind of experiment: Inhibition of amyloid beta (1 to 42) (unknown origin) self induced aggregation at 25 uM by ThT fluorescence assay relative to control.
Sequence of Amyloid-beta precursor protein (Homo sapiens) (P05067 whole entry): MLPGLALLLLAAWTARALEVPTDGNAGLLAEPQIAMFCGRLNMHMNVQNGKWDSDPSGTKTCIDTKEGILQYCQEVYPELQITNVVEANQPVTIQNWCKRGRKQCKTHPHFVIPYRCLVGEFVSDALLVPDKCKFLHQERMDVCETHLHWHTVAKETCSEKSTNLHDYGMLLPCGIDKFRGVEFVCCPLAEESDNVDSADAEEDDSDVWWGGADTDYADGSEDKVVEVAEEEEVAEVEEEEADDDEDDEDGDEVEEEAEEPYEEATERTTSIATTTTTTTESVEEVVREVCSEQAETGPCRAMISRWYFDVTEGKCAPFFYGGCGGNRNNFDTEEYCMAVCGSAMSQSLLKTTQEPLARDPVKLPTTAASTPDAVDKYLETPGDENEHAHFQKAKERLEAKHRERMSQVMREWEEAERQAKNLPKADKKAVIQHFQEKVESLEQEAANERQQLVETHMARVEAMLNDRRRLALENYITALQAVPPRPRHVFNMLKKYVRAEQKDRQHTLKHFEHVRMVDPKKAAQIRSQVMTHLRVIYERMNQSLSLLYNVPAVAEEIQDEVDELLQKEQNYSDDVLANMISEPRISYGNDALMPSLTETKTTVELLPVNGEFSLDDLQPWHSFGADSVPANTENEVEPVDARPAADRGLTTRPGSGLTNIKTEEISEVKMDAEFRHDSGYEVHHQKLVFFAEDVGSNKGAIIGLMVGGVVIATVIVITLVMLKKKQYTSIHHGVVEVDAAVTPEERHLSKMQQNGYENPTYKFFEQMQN
Data set [3] has the same target. Nature of the data set: Inhibition of Cu2+ induced amyloid beta (1 to 42)(unknown origin) fibrillation at 25 uM by ThT fluorescence assay relative to control.
The target is the same in data set [4]. Nature of the data set: Disaggregation of self-induced amyloid beta (1 to 42) (unknown origin) fibrils at 25 uM by ThT fluorescence assay relative to control.
The subject of data set [5] is HT-22. Nature of the data set: Neuroprotective activity against amyloid beta (1 to 42) induced cell injury in mouse HT-22 cells assessed as cell viability at 50 uM incubated for 24 hrs by MTT assay. It is filed as functional, cell-based. (In general: Tetrazolium assays rely on reduction of a dye to a coloured formazan, in cell work by metabolically active cells.)
For data set [6], the system named is HT-22. As to the kind of experiment: Neuroprotective activity against amyloid beta (1 to 42)-induced injury in mouse HT-22 cells assessed as reversal of reduction in cell numbers at 10 uM measured after 24 hrs by MTT assay. It is filed as functional, cell-based.
The subject of data set [7] is HT-22. Nature of the data set: Neuroprotective activity against amyloid beta (1 to 42)-induced injury in mouse HT-22 cells assessed as reversal of reduced cell synapse length at 10 uM measured after 24 hrs […]. It is filed as functional, cell-based.
The subject of data set [8] is BV-2. Nature of the data set: Cytotoxicity against mouse BV-2 cells at upto 10 uM measured after 24 hrs by MTT assay. It is filed as toxicity, cell-based. The conditions noted are these: bv-2, 24 h.
Data set [9] relates to BV-2. As to the kind of experiment: Cytotoxicity against LPS-induced mouse BV-2 cells assessed as cell viability at 0.5 to 10 uM incubated for 24 hrs by MTT assay. It is filed as toxicity, cell-based. The conditions noted are these: bv-2, 24 h, dose 0.5-10 µM.
Data set [10] relates to BV-2. Nature of the data set: Antineuroinflammatory activity in LPS-induced mouse BV-2 cells assessed as inhibition of NO release at 0.5 uM preincubated for 30 mins followed by LPS stimulation and measured after 24 hrs relative to control. It is filed as functional. Set-up: scale not given: the % may be the effect or the level left. The conditions noted are these: time 24.5 hrs.

In data set [11] the test system is BV-2. As to the kind of experiment: Antineuroinflammatory activity in LPS-induced mouse BV-2 cells assessed as inhibition of NO release at 2.5 uM preincubated for 30 mins followed by LPS stimulation and measured after 24 hrs relative to control. Also on record: scale not given: the % may be the effect or the level left. It is filed as functional. As to conditions: time 24.5 hrs.

The subject of data set [12] is BV-2. Nature of the data set: Antineuroinflammatory activity in LPS-induced mouse BV-2 cells assessed as inhibition of NO release at 10 uM preincubated for 30 mins followed by LPS stimulation and measured after 24 hrs relative to control. It is filed as functional. Also on record: scale not given: the % may be the effect or the level left. As to conditions: time 24.5 hrs.

For data set [13], the system named is BV-2. As to the kind of experiment: Antineuroinflammatory activity in LPS-induced mouse BV-2 cells assessed as inhibition of TNF-alpha release at 0.5 uM preincubated for 30 mins followed by LPS stimulation and measured after 24 hrs relative to control. It is filed as functional. Set-up: scale not given: the % may be the effect or the level left. As to conditions: time 24.5 hrs.

Data set [14] relates to BV-2. As to the kind of experiment: Antineuroinflammatory activity in LPS-induced mouse BV-2 cells assessed as inhibition of TNF-alpha release at 2.5 uM preincubated for 30 mins followed by LPS stimulation and measured after 24 hrs relative to control. It is filed as functional. The conditions noted are these: time 24.5 hrs. Also on record: scale not given: the % may be the effect or the level left.

Data set [15] has as its system BV-2. Nature of the data set: Antineuroinflammatory activity in LPS-induced mouse BV-2 cells assessed as inhibition of TNF-alpha release at 10 uM preincubated for 30 mins followed by LPS stimulation and measured after 24 hrs relative to control. It is filed as functional. Set-up: scale not given: the % may be the effect or the level left. As to conditions: time 24.5 hrs.

In data set [16] the test system is BV-2. Nature of the data set: Antineuroinflammatory activity in LPS-induced mouse BV-2 cells assessed as inhibition of IL-1 beta release at 0.5 uM preincubated for 30 mins followed by LPS stimulation and measured after 24 hrs relative to control. It is filed as functional. Set-up: scale not given: the % may be the effect or the level left. The conditions noted are these: time 24.5 hrs.

Data set [17] concerns BV-2. Nature of the data set: Antineuroinflammatory activity in LPS-induced mouse BV-2 cells assessed as inhibition of IL-1 beta release at 2.5 uM preincubated for 30 mins followed by LPS stimulation and measured after 24 hrs relative to control. It is filed as functional. Set-up: scale not given: the % may be the effect or the level left. The conditions noted are these: time 24.5 hrs.

Data set [18] deals with BV-2. Nature of the data set: Antineuroinflammatory activity in LPS-induced mouse BV-2 cells assessed as inhibition of IL-1 beta release at 10 uM preincubated for 30 mins followed by LPS stimulation and measured after 24 hrs relative to control. It is filed as functional. Set-up: scale not given: the % may be the effect or the level left. The conditions noted are these: time 24.5 hrs.

On to `C=CC(C)(C)C1OC(=O)c2c1cc(OC)c(OC)c2O` (stereo not drawn), for which the Activity in [1] was determined as 1.94. This compound also showed an inhibition in data set [2] of 37.1%.
The matching figures for `C=CCCCC1OC(=O)c2c1cc(OC)c(OC)c2O` (stereo not drawn): 1.68 and 24.6%.
The matching figures for `CCCCC1OC(=O)c2c1cc(OC)c(OC)c2O` (stereo not drawn): 1.27 and 30.2%.
With `C=CCC1OC(=O)c2c1cc(OC)c(OC)c2O` (stereo not drawn), the Activity in data set [1] stood at 1.71. This compound also yielded an inhibition in [2] below 5%.
The matching figures for `CCCCCC1OC(=O)c2c1cc(OC)c(O)c2OC` (stereo not drawn): 2.08 and 19.4%.
As to `C=CCCCCC1OC(=O)c2c1cc(OC)c(OC)c2O` (stereo not drawn), the Activity in data set [1] worked out at 1.77. Also, in data set [2], the inhibition came out at 19.2%.
Consider `CCCCC1OC(=O)c2c1cc(OC)c(O)c2O` (stereo not drawn), for which the Activity was found to be 2.36 in [1] and 39.5% in data set [4]. Besides, the inhibition in [2] amounted to 78.8%; in data set [3] it was 28.5%.
In the case of `CCCCCC1OC(=O)c2c1cc(OC)c(OC)c2O` (stereo not drawn), the Activity in [1] stood at 1.36. Also, the inhibition in data set [2] came out at 35.1%.
Turning to `CCCCC1OC(=O)c2ccccc21` (racemic) [RAC-3-N-BUTYLPHTHALIDE], the Activity in data set [1] was 0.23; with BV-2 [8] it was “Non-Toxic”; in the data set on BV-2 [9], “Non-Toxic”; with BV-2 [10], 13.3%; in the data set with BV-2 [11], 23.2%; in the data set with BV-2 [12] it was 45.5%. In addition, the Activity worked out at 12.6% in the data set on BV-2 [13]; 24% in the data set with BV-2 [14]; 40.6% with BV-2 [15]; 11.5% in the data set on BV-2 [16]; 21.1% with BV-2 [17]; 31.3% in the data set on BV-2 [18]. For the same compound, the result with HT-22 [5] was Active. Moreover, the outcome in the data set on HT-22 [6] and in the data set with HT-22 [7] was inactive.
In the case of `CCCCC1OC(=O)c2c1cc(OC)c(OC)c2OC` (stereo not drawn), in data set [1], the Activity turned out to be 0.4. Moreover, in data set [2], the inhibition stood at 15.9%.
For `CCCC1OC(=O)c2c1cc(OC)c(OC)c2O` (stereo not drawn), in data set [1], the Activity turned out to be 1.21. In [2], the inhibition worked out at 27.3%.
For `C=CC(C)(C)C1OC(=O)c2c1cc(OC)c(OC)c2OC` (stereo not drawn), in data set [1], the Activity worked out at 0.45. In data set [2], this compound registered an inhibition of 15%.
The matching figures for `C=CCCC1OC(=O)c2c1cc(OC)c(OC)c2OC` (stereo not drawn): 0.53 and 24.3%.
As for `CCCC1OC(=O)c2c1cc(OC)c(OC)c2OC` (stereo not drawn), the Activity in data set [1] was 0.39. The compound further came in with an inhibition in [2] of 21.8%.
Turning to `CCCCC1OC(=O)c2c1cc(OC)c(O)c2OC` (stereo not drawn), the Activity in data set [1] is 1.59. For the same compound, the inhibition in data set [2] was 23.4%.
As for `C=CCCCC1OC(=O)c2c1cc(OC)c(OC)c2OC` (stereo not drawn), in [1], the Activity came to 0.71. The inhibition in data set [2] was found to be 19.2%.
`CCCCCCC1OC(=O)c2c1cc(OC)c(OC)c2O` (stereo not drawn): the Activity in data set [1] worked out at 1.44. The compound also gave an inhibition in data set [2] of 25.2%.
On the same counts, the results for `CCCCCC1OC(=O)c2c1cc(OC)c(OC)c2OC` (stereo not drawn) are 0.47 and 19.4%.
The matching figures for `C=CCC1OC(=O)c2c1cc(OC)c(OC)c2OC` (stereo not drawn): 0.41 and 25.4%.
On to `CCCCCCCC1OC(=O)c2c1cc(OC)c(OC)c2O` (stereo not drawn), for which the Activity in data set [1] was 1.34. For the same compound, the inhibition in [2] is 26.4%.
Consider `C=CCCCCCC1OC(=O)c2c1cc(OC)c(OC)c2O` (stereo not drawn), for which the Activity in data set [1] amounted to 1.81. Further, the inhibition in data set [2] was below 5%.
For `C=CCCC1OC(=O)c2c1cc(OC)c(OC)c2O` (stereo not drawn), in [1], the Activity turned out to be 1.93. The same compound returned an inhibition in [2] below 5%.
On the same counts, the results for `CCCCCCC1OC(=O)c2c1cc(OC)c(O)c2OC` (stereo not drawn) are 1.6 and 29.1%.
Regarding `CCCCCCC1OC(=O)c2c1cc(OC)c(OC)c2OC` (stereo not drawn), in [1], the Activity was 0.68. Moreover, the inhibition in [2] was determined as 25.2%.
Consider `C=CCCCCC1OC(=O)c2c1cc(OC)c(OC)c2OC` (stereo not drawn), for which the Activity in data set [1] was 0.61. For the same compound, the inhibition in data set [2] was determined as 17.6%.
In the case of `CCCCCCC1OC(=O)c2c1cc(OC)c(O)c2O` (stereo not drawn), the Activity in data set [1] was 2.5; in [4], 32.3%. The inhibition worked out at 83.3% in data set [2] and 30.5% in data set [3].
For `C=CCCCCCC1OC(=O)c2c1cc(OC)c(OC)c2OC` (stereo not drawn), the Activity in data set [1] amounted to 0.46. For the same compound, the inhibition in [2] was found to be 19.2%.
Regarding `CCCCCCCC1OC(=O)c2c1cc(OC)c(OC)c2OC` (stereo not drawn), the Activity in data set [1] was determined as 0.62. Also, the inhibition in [2] was 16.5%.

A word on the inhibition: it is the relative decrease from the control value, in per cent.
